Measurements reported in ChEMBL document CHEMBL5050851, “Compounds that induce ferroptic cell death” (2020).
Calls of active or inactive are those of the source. The calls are words filed in the database; no cut-off is given here.

Assays:
HCT-116 [1] = experiment: Antiproliferative activity against human HCT-116 cells assessed as cell death after 72 hrs by Alamar blue viability assay; type: functional, cell-based; conditions: HCT-116, 72 h
ES-2 [2] = experiment: Antiproliferative activity against human ES2 cells assessed as cell death after 72 hrs by Alamar blue viability assay; type: functional, cell-based; conditions: ES-2, 72 h
[3] = AUC in C57BL/6 mouse at 40 mg/kg, ip; type: ADME, organism-based; set-up: dose 40 mg/kg; conditions: in vivo
HCT-116 [4] = experiment: Antiproliferative activity against human HCT-116 cells at 10 uM pretreated with 25 uM pan-caspase inhibitor Q-VD-OPh and assessed as induction of cell death measured after 13 hrs; type: functional, cell-based
MIA PaCa-2 = experiment: Antiproliferative activity against human MIA PaCa-2 cells at 10 uM assessed as time to induce 50% cell death measured by Annexin V/propidium iodide staining method; type: functional
ES-2 [5] = experiment: Induction of ROS production in human ES2 cells at 5 to 25 uM measured by carboxy-H2DCFDA fluorescence assay; type: functional, cell-based; conditions: dose 5-25 µM
4T1 [6] = experiment: Antitumor activity against mouse 4T1 cells xenografted immunodeficient SCID mouse assessed as tumor growth at 50 mg/kg, ip administered twice a week as 5 doses; type: functional, organism-based
ES-2 [7] = experiment: Induction of ROS production in human ES2 cells at 10 to 25 uM measured by MitoSox red fluorescence assay; type: functional, cell-based; conditions: dose 10-25 µM
HCT-116 [8] = experiment: Induction of PARP-1 cleavage in human HCT-116 cells measured after 1 to 7 hrs; type: functional, cell-based; conditions: time 1-7 hrs
ES-2 [9] = experiment: Induction of ROS-induced lipid peroxidation in human ES2 cells at 10 uM pretreated with DFO and measured after 1 hr; type: functional, cell-based
4T1 [10] = experiment: Induction of cell death in mouse 4T1 cells at 5 to 25 uM in presence of 250 uM trolox and measured after 18 hrs; type: functional, cell-based; conditions: dose 5-25 µM
4T1 [11] = experiment: Induction of ROS-induced lipid peroxidation in mouse 4T1 cells at 10 uM measured after 1 hr; type: functional, cell-based
4T1 [12] = experiment: Induction of cell death in mouse 4T1 cells at 5 to 25 uM in presence of 2 uM ferrostatin-1 and measured after 18 hrs; type: functional, cell-based; conditions: dose 5-25 µM
HCT-116 [13] = experiment: Antiproliferative activity against human HCT-116 cells at 10 uM assessed as time to induce 50% cell death measured by Annexin V/propidium iodide staining method; type: functional
[14] = Hemolytic activity in human RBC measured by hemolysis assay; type: toxicity, cell-based; conditions: erythrocyte
HCT-116 [15] = experiment: Induction of ROS-induced lipid peroxidation in human HCT-116 cells at 10 uM pretreated with DFO and measured after 1 hr; type: functional, cell-based
HCT-116 [16] = experiment: Induction of cell death in human HCT-116 cells at 5 to 25 uM in presence of 2 uM ferrostatin-1 and measured after 10 hrs; type: functional, cell-based; conditions: dose 5-25 µM
[17] = target: T1, Phospholipid hydroperoxide glutathione peroxidase GPX4 (Homo sapiens) (UniProt P36969); experiment: Inhibition of GPX4 in human ES2 cells at 10 uM measured after 1 hr by phosphotidylcholine hydroperoxide (PCOOH) LC-MS based assay relative to control; type: cell-based
T1 sequence (whole entry): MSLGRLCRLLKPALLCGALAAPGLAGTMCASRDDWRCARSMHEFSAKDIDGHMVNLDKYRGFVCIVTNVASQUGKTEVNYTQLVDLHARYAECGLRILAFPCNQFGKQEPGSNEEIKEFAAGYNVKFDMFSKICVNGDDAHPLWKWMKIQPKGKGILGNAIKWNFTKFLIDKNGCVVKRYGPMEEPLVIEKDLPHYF

[18] = target: T2, Thioredoxin, mitochondrial (Homo sapiens) (UniProt Q99757); experiment: Inhibition of thioredoxin in human HCT-116 cells at 20 uM relative to control; type: cell-based
T2 sequence (whole entry): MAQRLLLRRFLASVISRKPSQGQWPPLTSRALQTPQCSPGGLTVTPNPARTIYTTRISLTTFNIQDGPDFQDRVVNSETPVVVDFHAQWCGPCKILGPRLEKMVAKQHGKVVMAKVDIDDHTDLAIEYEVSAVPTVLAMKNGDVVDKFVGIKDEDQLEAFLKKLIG

ES-2 [19] = experiment: Antiproliferative activity against human ES2 cells at 10 uM pretreated with 25 uM pan-caspase inhibitor Q-VD-OPh and assessed as induction of cell death measured after 13 hrs; type: functional, cell-based
HCT-116 [20] = experiment: Induction of cell death in human HCT-116 cells at 5 to 25 uM in presence of 5 mM NAC and measured after 10 hrs; type: functional, cell-based; conditions: dose 5-25 µM
HCT-116 [21] = experiment: Induction of ROS production in human HCT-116 cells at 5 to 25 uM measured by carboxy-H2DCFDA fluorescence assay; type: functional, cell-based; conditions: dose 5-25 µM
ES-2 [22] = experiment: Induction of cell death in human ES2 cells at 5 to 25 uM in presence of 100 uM DFO and measured after 14 hrs; type: functional, cell-based; conditions: dose 5-25 µM
ES-2 [23] = experiment: Induction of apoptosis in human ES2 cells assessed as change in chromatin condensation; type: functional, cell-based
HCT-116 [24] = experiment: Induction of ROS-induced lipid peroxidation in human HCT-116 cells at 10 uM measured after 1 hr; type: functional, cell-based
HCT-116 [25] = experiment: Induction of cell death in human HCT-116 cells at 5 to 25 uM in presence of 250 uM trolox and measured after 10 hrs; type: functional, cell-based; conditions: dose 5-25 µM
ES-2 [26] = experiment: Induction of apoptosis in human ES2 cells assessed as change in cell membrane blebbing; type: functional, cell-based
A549 [27] = experiment: Induction of cell death in human A549 cells at 5 to 25 uM in presence of 100 uM DFO and measured after 12 hrs; type: functional, cell-based; conditions: dose 5-25 µM
4T1 [28] = experiment: Antitumor activity against mouse 4T1 cells xenografted immunocompetent Balb/c mouse assessed as tumor growth inhibition at 50 mg/kg, ip administered twice a week as 5 doses; type: functional; conditions: 4T1, ip, read-out: TGI
[29] = target: T2, Thioredoxin, mitochondrial (Homo sapiens); experiment: Inhibition of human thioredoxin at 0.5 to 10 uM measured after 30 mins relative to control; conditions: dose 0.5-10 µM
ES-2 [30] = experiment: Induction of cell death in human ES2 cells at 5 to 25 uM in presence of 250 uM trolox and measured after 14 hrs; type: functional, cell-based; conditions: dose 5-25 µM
[31] = Half-life in C57BL/6 mouse at 40 mg/kg, ip; type: ADME, organism-based; conditions: in vivo
MCF-10A = experiment: Antiproliferative activity against human MCF-10A cells after 72 hrs by Alamar blue viability assay; type: functional, cell-based
4T1 [32] = experiment: Induction of ROS-induced lipid peroxidation in mouse 4T1 cells at 10 uM pretreated with DFO and measured after 1 hr; type: functional, cell-based
ES-2 [33] = experiment: Antiproliferative activity against human ES2 cells at 10 uM assessed as time to induce 50% cell death measured by Annexin V/propidium iodide staining method; type: functional
4T1 [34] = experiment: Induction of cell death in mouse 4T1 cells at 5 to 25 uM in presence of 100 uM DFO and measured after 18 hrs; type: functional, cell-based; conditions: dose 5-25 µM
Escherichia coli = experiment: Antibacterial activity against Escherichia coli; type: functional
HCT-116 [35] = experiment: Induction of cell death in human HCT-116 cells at 5 to 25 uM in presence of 100 uM DFO and measured after 10 hrs; type: functional, cell-based; conditions: dose 5-25 µM
Staphylococcus aureus = experiment: Antibacterial activity against Staphylococcus aureus; type: functional
A549 [36] = experiment: Induction of cell death in human A549 cells at 5 to 25 uM in presence of 250 uM trolox and measured after 12 hrs; type: functional, cell-based; conditions: dose 5-25 µM
ES-2 [37] = experiment: Induction of cell death in human ES2 cells at 5 to 25 uM in presence of 2 uM ferrostatin-1 and measured after 14 hrs; type: functional, cell-based; conditions: dose 5-25 µM
A549 [38] = experiment: Induction of cell death in human A549 cells at 5 to 25 uM in presence of 5 mM NAC and measured after 12 hrs; type: functional, cell-based; conditions: dose 5-25 µM
HFF-1 = experiment: Antiproliferative activity against human HFF-1 cells after 72 hrs by Alamar blue viability assay; type: functional, cell-based; conditions: HFF-1, 72 h
ES-2 [39] = experiment: Induction of ROS-induced lipid peroxidation in human ES2 cells at 10 uM measured after 1 hr; type: functional, cell-based
A549 [40] = experiment: Induction of cell death in human A549 cells at 5 to 25 uM in presence of 2 uM ferrostatin-1 and measured after 12 hrs; type: functional, cell-based; conditions: dose 5-25 µM
ES-2 [41] = experiment: Induction of PARP-1 cleavage in human ES2 cells measured after 1 to 7 hrs; type: functional, cell-based; conditions: time 1-7 hrs

## C[C@@H]1CC[C@@]23C[C@H](O)C(=O)[C@@]2(O)[C@]1(C)[C@H](OC(=O)CCl)C[C@@H](C1=CCC2C(=O)N(c4ccccc4)C(=O)C2C1)[C@@H]3C (stereo partly drawn)
HCT-116 [1]
  IC50: 6.4 µM
ES-2 [2]
  IC50: 2.5 µM

## C#CCN1C(=O)C2CC=C([C@@H]3C[C@@H](OC(=O)CCl)[C@]4(C)[C@H](C)CC[C@]5(C[C@H](O)C(=O)[C@]54O)[C@H]3C)CC2C1=O (stereo partly drawn)
HCT-116 [1]
  IC50: 10.5 µM
ES-2 [2]
  IC50: 4 µM

## CO[C@H]1C[C@@]23CC[C@@H](C)[C@@](C)([C@H](OC(=O)c4ccco4)C[C@@H](C4=CCn5c(=O)n(-c6ccccc6)c(=O)n5C4)[C@@H]2C)[C@]3(O)C1=O
HCT-116 [1]
  IC50: > 100 µM
ES-2 [2]
  IC50: > 100 µM

## C[C@@H]1CC[C@@]23C[C@H](O)C(=O)[C@@]2(O)[C@]1(C)[C@H](OC(=O)CCl)C[C@@H](C1=CCn2c(=O)n(-c4ccccc4)c(=O)n2C1)[C@@H]3C
[3]
  AUC: 7040 ng·h/mL
HCT-116 [4]
  Activity: Active
MIA PaCa-2
  Time: 1.5 h
ES-2 [5]
  Activity: Active
4T1 [6]
  Activity: inactive
ES-2 [7]
  Activity: Active
HCT-116 [8]
  Activity: inactive
ES-2 [9]
  Activity: inactive
4T1 [10]
  Activity: inactive
4T1 [11]
  Activity: Active
4T1 [12]
  Activity: inactive
HCT-116 [13]
  Time: 7 h
[14]
  Activity: Non-Toxic
HCT-116 [15]
  Activity: inactive
HCT-116 [16]
  Activity: inactive
[17]
  inhibition: inactive
[18]
  inhibition: Active
ES-2 [19]
  Activity: Active
HCT-116 [20]
  Activity: inactive
HCT-116 [21]
  Activity: Active
ES-2 [22]
  Activity: inactive
ES-2 [23]
  Activity: inactive
HCT-116 [24]
  Activity: Active
HCT-116 [25]
  Activity: inactive
ES-2 [26]
  Activity: inactive
A549 [27]
  Activity: inactive
4T1 [28]
  inhibition in vivo at 50 mg/kg: 40%
[29]
  inhibition: Active
ES-2 [30]
  Activity: inactive
[31]
  half-life: 9.96 min
MCF-10A
  IC50: 3.1 µM
4T1 [32]
  Activity: inactive
HCT-116 [1]
  IC50: 3.5 µM
ES-2 [33]
  Time: 1 h
4T1 [34]
  Activity: inactive
Escherichia coli
  MIC: > 64 µg/mL
ES-2 [2]
  IC50: 1.6 µM
HCT-116 [35]
  Activity: inactive
Staphylococcus aureus
  MIC: > 64 µg/mL
A549 [36]
  Activity: inactive
ES-2 [37]
  Activity: inactive
A549 [38]
  Activity: inactive
HFF-1
  IC50: 4.1 µM
ES-2 [39]
  Activity: Active
A549 [40]
  Activity: inactive
ES-2 [41]
  Activity: inactive

## CC1=CC(C)=[N+]2C1=Cc1ccc(CCC(=O)NCCCn3cc(CN4C(=O)C5CC=C([C@@H]6C[C@@H](OC(=O)CI)[C@]7(C)[C@H](C)CC[C@]8(C[C@H](O)C(=O)[C@]87O)[C@H]6C)CC5C4=O)nn3)n1[B-]2(F)F (stereo partly drawn)
HCT-116 [1]
  IC50: 15.7 µM
ES-2 [2]
  IC50: 1.5 µM

## CO[C@H]1C[C@@]23CC[C@@H](C)[C@@](C)([C@H](OC(=O)CCl)C[C@@H](C4=CCn5c(=O)n(-c6ccccc6)c(=O)n5C4)[C@@H]2C)[C@]3(O)C1=O
HCT-116 [1]
  IC50: 3 µM
ES-2 [2]
  IC50: 1.9 µM

## C[C@@H]1CC[C@@]23C[C@H](O)C(=O)[C@@]2(O)[C@]1(C)[C@H](OC(=O)CI)C[C@@H](C1=CCn2c(=O)n(-c4ccccc4)c(=O)n2C1)[C@@H]3C
HCT-116 [1]
  IC50: 0.66 µM
ES-2 [2]
  IC50: 0.24 µM
